# Laboratory results from ChEMBL document CHEMBL4017466, “Efficient synthesis of a multi-substituted diphenylmethane skeleton as a steroid mimetic” (Bioorg Med Chem Lett, 2017).
# The source made the active and inactive calls. The calls are words filed in the database; no cut-off is given here.
# Target: T1, Estrogen receptor (Homo sapiens, UniProt P03372)
# T1 sequence (P03372 whole entry): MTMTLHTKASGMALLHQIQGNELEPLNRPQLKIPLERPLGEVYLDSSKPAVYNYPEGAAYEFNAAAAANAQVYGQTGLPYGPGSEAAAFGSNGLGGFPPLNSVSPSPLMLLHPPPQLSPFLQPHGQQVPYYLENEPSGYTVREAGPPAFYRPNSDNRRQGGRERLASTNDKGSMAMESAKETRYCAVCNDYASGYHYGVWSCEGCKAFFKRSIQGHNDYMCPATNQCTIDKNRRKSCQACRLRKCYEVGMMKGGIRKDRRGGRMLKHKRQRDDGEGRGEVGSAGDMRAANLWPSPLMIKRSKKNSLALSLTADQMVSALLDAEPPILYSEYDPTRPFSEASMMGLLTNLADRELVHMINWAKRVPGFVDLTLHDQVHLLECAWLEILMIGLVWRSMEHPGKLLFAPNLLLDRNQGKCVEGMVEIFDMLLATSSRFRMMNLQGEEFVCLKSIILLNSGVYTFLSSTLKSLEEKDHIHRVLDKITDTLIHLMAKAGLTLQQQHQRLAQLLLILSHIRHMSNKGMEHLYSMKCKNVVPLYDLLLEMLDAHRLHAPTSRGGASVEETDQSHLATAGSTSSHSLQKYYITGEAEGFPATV
# Assay: Antagonist activity at CMX-GAL4N fused human ERalpha expressed in HEK293 cells assessed as reduction in E2 induced response by luciferase reporter gene assay
# Type: cell-based
row,Structure (SMILES),IC50 [µM]
1,CCC(CC)(c1ccc(O)cc1)c1ccc(O)c(O)c1,0.154
2,CCCC(CCC)(c1ccc(O)c(C)c1)c1cc(C)c(O)c(O)c1,0.271
3,CCCC(CCC)(c1ccc(O)c(C)c1)c1ccc(O)c(O)c1,0.158
4,CCC(CC)(c1ccc(O)c(C)c1)c1ccc(O)c(O)c1,0.664
5,CCCC(CCC)(c1ccc(O)c(C)c1)c1ccc(O)c(C)c1,0.00222
6,CCCC(CCC)(c1ccc(OCCN(C)C)c(C)c1)c1ccc(O)c(O)c1,0.225
7,CCCC(CCC)(c1ccc(O)c(C)c1)c1ccc(OCCN(C)C)c(C)c1,0.134
8,CCCC(CCC)(c1ccc(O)cc1)c1ccc(O)c(O)c1,0.0632

# Target: T2, Estrogen receptor (Homo sapiens) (UniProt P03372)
# T2 sequence (whole entry): T1 sequence (P03372 whole entry)
# Assay: Antagonist activity at CMX-GAL4N fused human ERalpha expressed in HEK293 cells assessed as reduction in E2 induced response at 10 to 10^4 nM by luciferase reporter gene assay
# Type: cell-based
row,Structure (SMILES),Activity
1,CCCC(CCC)(c1ccc(O)c(C)c1)c1ccc(OC(C)=O)c(OC(C)=O)c1,Active
